{"source": "patent US20180251824A1", "about": "“IN VITRO GENOTOXICITY ASSAY USING A TRANSCRIPTOMIC BIOMARKER WITH DIRECT DIGITAL COUNTING” (GEORGETOWN UNIVERSITY, priority 2017, published 2018)", "key": {"[1]": {"test_system": "TGx-DDI biomarker genes in TK6 cells", "test": "TGx-DDI transcriptomic biomarker classification by microarray", "format": "cell-based, human", "details": "for TGx-DDI classification, overall call (DDI if positive in any of 2DC, PCA, PA): TK6 cells, 4 h, single selected concentration; for TGx-DDI classification by 2DC and/or PCA: DDI branch in 2DC or negative PC1 = DDI; for TGx-DDI prediction by probability analysis (PA): DDI call based on p>0.9", "source_text": "Microarray procedures: RNA samples from the concentration-setting experiments of each compound at their selected concentrations were pooled together and analyzed using human whole genome expression long-nucleotide probe microarrays (60 nucleotide long, Agilent Technologies) microarray (Li et al., 2015). […] Each experiment was run on two arrays, and on each array both treated and reference (vehicle control) samples were hybridized in a dye-swap design. Specifically, the reference and treatment samples were labeled with two different fluorescence dyes, Cy3 and Cy5, and then both samples were hybridized onto one array. To reduce the effects associated with different labeling efficiencies, a two-color dye-swapping configuration was used. The results from these two arrays were combined for statistical analysis.\nTGx-DDI transcriptomic biomarker evaluation: Following the dose determination, microarray analysis was performed for each test compound. RNAs from three replicates in the concentration-setting experiment were pooled together and used for microarray analysis. Cisplatin and ionizing radiation were used in parallel during each experiment as positive controls and to assess batch variation. The TGx-DDI transcriptomic biomarker panel was used to classify each chemical as DDI or non-DDI using two-dimensional clustering (2DC), principal component analysis (PCA), and probability analysis (PA). Hierarchical clustering and PCA were used as an initial unsupervised method to explore the data.\nThe TGx-DDI heatmap for chemicals in all five classes. PA, PCA, and 2DC results using the TGx-DDI biomarker for validation chemicals were generated. In order to decrease the probability of false negatives, a three-pronged approach was used. A chemical was classified as DDI if it gave a positive call in any one of the TGx-DDI biomarker analyses described in the paragraph above (2DC, PCA or PA prediction)."}, "[2]": {"test_system": "ATF3, CDKN1A and GADD45A expression in TK6 cells", "test": "qRT-PCR indicator stress gene panel, dose optimization", "format": "cell-based, human", "details": "for transcriptional response of the indicator genes at a later time point: later than the 4 h time point", "protocol": "Dose optimization: For some assays, a sufficient concentration of the test agent is required to trigger a measureable transcriptional response; such concentrations may differ from other toxicological endpoints. Therefore, to determine an appropriate concentration for transcriptomics profiling, a dose-range finder experiment was performed for all test compounds as described in Li et al. (2015). Six concentrations of each agent were used for assessment of mRNA changes in three indicator genes (ATF 3, CDKNIA, and GADD45A) by qRT-PCR. The concentration for each agent showing the strongest induction of the indicator genes was then selected. In addition, concordance of responses in the indicator genes was confirmed prior to pooling samples for microarray analysis. If none of the indicator genes were induced in concentration-setting experiments, the IC50 was selected for the microarray analysis. The IC50 value was determined using a standard MTT assay at 24 hr using 10 concentrations and 3 replicates. Based on this cytotoxicity assay, the selected concentrations for microarray analysis were not overtly cytotoxic for any test agent (FIG. 2). If there was neither cytotoxicity nor induction of expression changes in the gene panel, a concentration of 1 mM was used for microarray analysis, as per the revised ICHS2(R1) guidance on genotoxicity testing of pharmaceuticals (ICHS2(R1) (2012) Guidance for Industry: S2(R1) Genotoxicity testing and data interpretation for pharmaceuticals intended for human use. US Department of Health and Human Services, Food and Drug Administration http://www.ich.org/fileadmin/Public_Web_Site/ICH_Products/Guidelines/Safety/S2_R1/Step4/S2R1_Step4.pdf). Selection of a single concentration and pooling replicate samples for microarray analysis (described below) is specific to biomarker development and validation, where multiple compounds were used in each class; future application in substance testing should be undertaken using a dose-response design with samples in triplicate (Buick et al., 2017)."}, "[3]": {"test_system": "TGx-DDI biomarker genes in TK6 cells", "test": "TGx-DDI nCounter assay (direct digital counting)", "details": "100 ng total RNA, same samples as microarray; 2DC, PCA, PA", "experimental": "Briefly, exponentially growing cells were treated with the indicated chemical agent for 4 h over a broad dose range, cells were harvested, and total RNA was isolated. […] For cell viability assays, at the end of 4 hr treatment, medium was removed from cells, and cells were washed and recovered in fresh medium for 20 hr. Cell viability was measured at the end of recovery period using an MTT Assay kit (Cayman Chemical, Ann Arbor, Mich.).\nTGx-DDI nCounter Assay: The nCounter™ assay was performed on 100 ng of RNA that had previously been pooled and used in microarray analysis. […] In brief, optimized sequences for genes in the TGx-DDI panel were custom-designed and manufactured by NanoString. The CodeSet includes the TGx-DDI gene-set and eight housekeeping genes. Housekeeping genes were selected based on stability and detectable expression levels, including G6PD, GUSB, HPRT1, LDHA, NONO, PGK1, PPIH, and TFRC.\nTo validate the sensitivity and specificity of DDI prediction by TGx-DDI nCounter assay, 38 out of 45 testing compounds, including Class 1, 2, 4 and 5, were evaluated using nCounter technology. nCounter assays were performed on 100 ng of total RNA, the same RNA samples that were used in microarray analysis. Following the categorization guideline described already for microarrays, compounds were classified as DDI or non-DDI based on nCounter assay data."}, "[4]": {"test_system": "TK6 cells", "test": "MTT cell viability assay", "format": "cell-based, human", "details": "selected concentration, 4 hr treatment plus 20 hr recovery", "protocol": "Dose optimization: For some assays, a sufficient concentration of the test agent is required to trigger a measureable transcriptional response; such concentrations may differ from other toxicological endpoints. Therefore, to determine an appropriate concentration for transcriptomics profiling, a dose-range finder experiment was performed for all test compounds as described in Li et al. (2015). Six concentrations of each agent were used for assessment of mRNA changes in three indicator genes (ATF 3, CDKNIA, and GADD45A) by qRT-PCR. The concentration for each agent showing the strongest induction of the indicator genes was then selected. In addition, concordance of responses in the indicator genes was confirmed prior to pooling samples for microarray analysis. If none of the indicator genes were induced in concentration-setting experiments, the IC50 was selected for the microarray analysis. The IC50 value was determined using a standard MTT assay at 24 hr using 10 concentrations and 3 replicates. Based on this cytotoxicity assay, the selected concentrations for microarray analysis were not overtly cytotoxic for any test agent (FIG. 2). Based on this cytotoxicity assay, the selected doses for microarray analysis were not overtly cytotoxic. […]"}}, "note": "“Also recorded” adds a separate entry of the source.", "data": [{"compound": "O=c1[nH]cc(F)c(=O)[nH]1", "note": "[5-FU]", "values": [{"measurement": "TGx-DDI classification, overall call (DDI if positive in any of 2DC, PCA, PA)", "setting": "[1]", "value": "DDI"}]}, {"compound": "Nc1ncn([C@@H]2O[C@H](CO)[C@@H](O)[C@H]2O)c(=O)n1", "note": "[5-azacytidine]", "values": [{"measurement": "transcriptional response of the indicator genes at a later time point", "setting": "[2]", "value": "stronger transcriptional response"}, {"measurement": "TGx-DDI classification, overall call (DDI if positive in any of 2DC, PCA, PA)", "setting": "[1]", "value": "non-DDI"}]}, {"compound": "CC/C(=C(/CC)c1ccc(O)cc1)c1ccc(O)cc1", "note": "[diethylstilbestrol]", "values": [{"measurement": "TGx-DDI classification by 2DC and/or PCA", "setting": "[1]", "value": "positive"}, {"measurement": "TGx-DDI prediction by probability analysis (PA)", "setting": "[1]", "value": "non-DDI"}, {"measurement": "TGx-DDI classification, overall call (DDI if positive in any of 2DC, PCA, PA)", "setting": "[1]", "value": "genotoxic calls"}]}, {"compound": "CS(=O)(=O)OCCCCOS(C)(=O)=O", "note": "[busulfan]", "values": [{"measurement": "TGx-DDI classification by nCounter", "setting": "[3]", "value": "consistency among three classification methods"}, {"measurement": "GADD45A induction relative to vehicle-treated control cells", "setting": "[2]; TK6 cells, 4 h treatment, selected concentration", "value": "at least 2 fold"}, {"measurement": "induction of stress genes at higher concentrations", "setting": "[2]; concentrations above the selected one", "value": "did not cause greater induction"}, {"measurement": "TGx-DDI classification by 2DC and/or PCA", "setting": "[1]", "value": "DDI agents; also recorded: positive"}, {"measurement": "TGx-DDI prediction by probability analysis (PA)", "setting": "[1]", "value": "non-DDI"}]}, {"compound": "Oc1ccc(O)cc1", "note": "[hydroquinone]", "values": [{"measurement": "TGx-DDI classification by nCounter", "setting": "[3]", "value": "consistency among three classification methods"}, {"measurement": "TGx-DDI classification by 2DC and/or PCA", "setting": "[1]", "value": "DDI agents; also recorded: positive"}, {"measurement": "TGx-DDI prediction by probability analysis (PA)", "setting": "[1]", "value": "non-DDI"}]}, {"compound": "CCn1cc(C(=O)O)c(=O)c2cc(F)c(N3CCNCC3)cc21", "note": "[norfloxacin]", "values": [{"measurement": "TGx-DDI classification, overall call (DDI if positive in any of 2DC, PCA, PA)", "setting": "[1]", "value": "non-DDI"}]}, {"compound": "Sc1ncnc2nc[nH]c12", "note": "[6-mercaptopurine]", "values": [{"measurement": "transcriptional response of the indicator genes at a later time point", "setting": "[2]", "value": "stronger transcriptional response"}, {"measurement": "TGx-DDI classification, overall call (DDI if positive in any of 2DC, PCA, PA)", "setting": "[1]", "value": "non-DDI"}]}, {"compound": "Nc1nc2[nH]cnc2c(=S)[nH]1", "note": "[6-TG]", "values": [{"measurement": "TGx-DDI classification, overall call (DDI if positive in any of 2DC, PCA, PA)", "setting": "[1]", "value": "DDI"}]}, {"compound": "CCCN(CCc1cccs1)[C@H]1CCc2c(O)cccc2C1", "note": "[rotigotin]", "values": [{"measurement": "induction of indicator genes ATF3, CDKN1A, GADD45A", "setting": "[2]; TK6 cells, 4 h treatment, selected or tested concentrations", "value": "did not induce any of the indicator genes"}]}, {"compound": "COS(C)(=O)=O", "note": "[MMS]", "values": [{"measurement": "clustering by 2DC using the TGx-DDI biomarker", "setting": "[1]; reproducibility check with training-set agents, selected concentration", "value": "clustered with the genotoxic agents"}]}, {"compound": "Cc1nc(Nc2ncc(C(=O)Nc3c(C)cccc3Cl)s2)cc(N2CCN(CCO)CC2)n1", "note": "[dasatanib]", "values": [{"measurement": "TGx-DDI classification, overall call (DDI if positive in any of 2DC, PCA, PA)", "setting": "[1]", "value": "genotoxic calls"}]}, {"compound": "bleomycin", "values": [{"measurement": "decline (reduction) in cell viability at 24 hr", "setting": "[4]", "value": 80, "unit": "%"}]}]}
